The structures appear in SMILES notation.

Here are results for 27 molecules from patent US9630943B2, “Tetrahydronaphthyl(thio) carboxamides” (BAYER CROPSCIENCE AG, priority 2012, dated 2017).

The first data set is described as follows: Measurement of logP values by HPLC on reversed phase columns (EEC directive 79/831 Annex V.A8). It is filed as physicochemical. The following applies: method [a].
In the case of `Cc1nn(C)c(C)c1C(=O)Nc1cccc2c1CCC(C)C2C` (mixture of isomers) [Example 11], the “LogP^[a]” value is 3.00^[a].

`CC1CCc2c(NC(=O)c3cn(C)nc3C(F)F)cccc2C1C` (mixture of isomers) [Example 12]: the “LogP^[a]” value was 3.37^[a].

In the case of `Cc1nn(C)c(F)c1C(=O)Nc1cccc2c1CCC(C)C2C` (mixture of isomers) [Example 13], the “LogP^[a]” value is 3.41^[a].

Consider `CC1CCc2cccc(NC(=O)c3cn(C)nc3C(F)F)c2C1C` (mixture of isomers) [Example 15], for which the “LogP^[a]” value was 3.21^[a].

Consider `Cc1nc(C(F)F)c(C(=O)Nc2cccc3c2CCC(C)C3C)s1` (mixture of isomers) [Example 35], for which the “LogP^[a]” value is 3.78^[a].

Consider `CCc1nc(C)sc1C(=O)Nc1cccc2c1CCC(C)C2C` (mixture of isomers) [Example 36], for which the “LogP^[a]” value is 3.87^[a].

In the case of `CC1CCc2c(NC(=O)c3cn(C)nc3C(F)F)cccc2C1(C)C` (racemic) [Example 1], the “LogP^[a]” value was 3.60^[a].

As for `CC1CCc2cccc(NC(=O)c3cn(C)nc3C(F)F)c2C1(C)O` (racemic) [Example 14], the “LogP^[a]” value was 3.96^[a].

Regarding `CC1CCC(C)(C)c2cccc(NC(=O)c3cn(C)nc3C(F)F)c21` (racemic) [Example 17], the “LogP^[a]” value was 3.44^[a].

In the case of `Cc1nc(C(F)F)c(C(=O)Nc2cccc3c2CCC(C)(C)C3C)s1` (racemic) [Example 18], the “LogP^[a]” value was 4.09^[a].

Take `CCc1nc(C)sc1C(=O)Nc1cccc2c1CCC(C)(C)C2C` (racemic) [Example 19]: the “LogP^[a]” value was 4.19^[a].

As for `Cc1nn(C)c(C)c1C(=O)Nc1cccc2c1CCC(C)(C)C2C` (racemic) [Example 20], the “LogP^[a]” value is 3.25^[a].

For the molecule `Cc1nn(C)c(F)c1C(=O)Nc1cccc2c1CCC(C)(C)C2C` (racemic) [Example 21], the “LogP^[a]” value is 3.70^[a].

`CC1c2cccc(NC(=O)c3cn(C)nc3C(F)F)c2CCC1(C)C` (racemic) [Example 22]: the “LogP^[a]” value is 3.68^[a].

With `Cn1cc(C(=O)Nc2cccc3c2CCCC3(C)C)c(C(F)F)n1` [Example 4], the “LogP^[a]” value is 3.26^[a].

`Cn1cc(C(=O)Nc2cccc3c2CC(C)(C)CC3)c(C(F)F)n1` [Example 5]: the “LogP^[a]” value is 3.25^[a].

As for `C=C1c2cccc(NC(=O)c3c(C)nn(C)c3C)c2CCC1(C)C` [Example 6], the “LogP^[a]” value was 3.05^[a].

With `C=C1c2cccc(NC(=O)c3sc(C)nc3C(F)F)c2CCC1(C)C` [Example 7], the “LogP^[a]” value was 3.87^[a].

Regarding `C=C1c2cccc(NC(=O)c3sc(C)nc3CC)c2CCC1(C)C` [Example 8], the “LogP^[a]” value was 3.99^[a].

`C=C1c2cccc(NC(=O)c3c(C)nn(C)c3F)c2CCC1(C)C` [Example 9]: the “LogP^[a]” value was 3.48^[a].

For the molecule `C=C1c2cccc(NC(=O)c3cn(C)nc3C(F)F)c2CCC1(C)C` [Example 10], the “LogP^[a]” value was 3.48^[a].

Turning to `Cc1nn(C)c(C)c1C(=O)Nc1cccc2c1CC(C)(C)CC2` [Example 23], the “LogP^[a]” value is 2.90^[a].

As to `CCc1nc(C)sc1C(=O)Nc1cccc2c1CC(C)(C)CC2` [Example 24], the “LogP^[a]” value is 3.79^[a].

In the case of `Cc1nc(C(F)F)c(C(=O)Nc2cccc3c2CC(C)(C)CC3)s1` [Example 25], the “LogP^[a]” value was 3.72^[a].

Take `Cc1nn(C)c(F)c1C(=O)Nc1cccc2c1CC(C)(C)CC2` [Example 26]: the “LogP^[a]” value is 3.31^[a].

The same data set, now with this note: pH 2.7.
By chromatographic logP is commonly meant a lipophilicity value derived from retention on a column. Take `Cc1nn(C)c(F)c1C(=O)Nc1cccc2c1CCCC2(C)C` [Example 2, N-(5,5-dimethyl-5,6,7,8-tetrahydronaphthalen-1-yl)-5-fluoro-1,3-dimethyl-1H-pyrazole-4-carboxamide]: the chromatographic logP came out at 3.23.

In turn, `C=C1c2c(cccc2NC(=O)c2cn(C)nc2C(F)F)CCC1(C)C` [Example 16, 3-(difluoromethyl)-N-(7,7-dimethyl-8-methylene-5,6,7,8-tetrahydronaphthalen-1-yl)-1-methyl-1H-pyrazole-4-carboxamide] came in with a chromatographic logP of 2.31.
